Data on one compound can be found in patent US20030129168A1, “Expression of proteins for treating asthma via ligand mediated activation of their encoding genes” (ARIAD Gene Therapeutics, Inc., priority 1996, published 2003).

For one experiment, the system named is NFAT. As to the kind of experiment: SEAP reporter activation by cross-linking chimeric receptor TAC/TAC/Z (TTZ) in TAg Jurkat cells. As to conditions: addition of 1 ng/ml FK506; TTZ-transfected TAg Jurkat cells on bound anti-TAC mAb. It is filed as cell-based, human. An excerpt:
The plasmid pSXNeo/IL2 (IL2-SX) (FIG. 1 of PCT/US94/01617), which contains the placental secreted alkaline phosphatase gene under the control of human IL-2 promoter (−325 to +47; MCB(86) 6, 3042), and related plasmid variants (i.e. NFAT-SX, NFB-SX, OAP/Octl-SX, and AP-1-SX) in which the reporter gene is under the transcriptional control of the minimal IL-2 promoter (−325 to −294 and −72 to +47) combined with synthetic oligomers containing various promoter elements (i.e. NFAT, NKB, OAP/Oct-1, and AP1, respectively), were made by three piece ligations of 1) pPL/SEAP (Berger, et al., Gene (1988) 66,1) cut with Sspl and HindIII; 2) pSV2/Neo (Southern and Berg, J. Mol. Appl. Genet. (1982) 1, 332) cut with NdeI, blunted with Kilenow, then cut with PvuI; and 3) various promoter-containing plasmids (i.e. NFAT-CD8, B-CD8, cxl2lacZ-Oct-1, AP1-LUCIF3H, or cx151L2) (described below) cut with PvuI and HindIII. NFAT-CD8 contains 3 copies of the NFAT-binding site (−286 to −257; Genes and Dev. (1990) 4, 1823) and cx121acZ-Oct contains 4 copies of the OAP/Oct-1/(ARRE-1) binding site (MCB, (1988) 8, 1715) from the human IL-2 enhancer; B-CD8 contains 3 copies of the NFB binding site from the murine light chain (EMBO (1990) 9,4425) and AP1-LUCIF3H contains 5 copies of the AP-1 site (5′-[…]-3′) from the metallothionen promoter. […]

Experiment [1] has as its system chimeric FKBP12/CD3 (1FK3) receptor. As to the kind of experiment: FK1012A activation of chimeric FKBP12/CD3 (1FK3) receptor, NFAT-SX SEAP reporter. It is filed as cell-based. Particulars: addition of 2 ng/ml FK506. As for the experimental part: 5 μg of the eukaryotic expression vector, pBJ5, (based on pCDL-SR with a polylinker inserted between the 16S splice site and the poly A site), containing the chimeric receptor (1FK3), was co-transfected with 4 μg of the NFAT-inducible secreted alkaline phosphatase reporter plasmid, NFAT-SX. As a control, 5 μg of pBJ5 was used, instead of 1FK3/pBJ5, in a parallel transfection. After 24 hours, aliquots of each transfection containing approximately 10^5 cells were incubated with log dilutions of the drug FK1012A, as indicated. As a positive control and to control for transfection efficiency, ionomycin (1 μM) and PMA (25 ng/ml) were added to aliquots from each transfection. After an additional 14 hour incubation, the supernatants were assayed for alkaline phosphatase activity and these activities were expressed relative to that of the positive control samples. […] Each data point obtained was the average of two samples and the experiment was performed several times with similar results.

The test system of experiment [2] is myristoylated chimeric CD3/FKBP12 (MZF3E) receptor. Nature of the experiment: FK1012 activation of myristoylated chimeric CD3/FKBP12 (MZF3E) receptor, NFAT SEAP reporter in Jurkat T cells. The class given is cell-based, human. Particulars: addition of 1 ng/ml FK506. An excerpt: In an illustrative case, this was accomplished by creating an intracellular receptor comprised of a small fragment of Src sufficient for posttranslational myristoylation (M), the cytoplasmic tail of zeta (Z; a component of the […] was also used), three consecutive FKBP12s (F3) and a flu epitope tag (E). […] The promoter of the SEAP reporter gene was constructed to be transcriptionally activated by nuclear factor of activated T cells (NFAT), which is assembled in the nucleus following TCR-signaling.
Specifically, 5 μg of the eukaryotic expression vector, pBJ5, containing a myristoylated chimeric receptor was co-transfected with 4 μg NFAT-SX. MZE, MZF1E, MZF2E and MZF3E contain 0, 1, 2, or 3 copies of FKBP12, respectively, downstream of a myristoylated CD3 cytoplasmic domain (see FIG. 2 of PCT/US94/01617). As a control, 5 μg of pBJ5 was used in a parallel transfection. After 24 hours, aliquots of each transfection containing approximately 10^5 cells were incubated with log dilutions of the drug, FK1012B, as indicated. As a positive control and to control for transfection efficiency, ionomycin (1 μm) and PMA (25 ng/ml) were added to aliquots from each transfection. After an additional 12 hour incubation, the supernatants were assayed for alkaline phosphatase activity and these activities were expressed relative to that of the positive control samples. […] Compare FIGS. 7 and 8 of PCT/US94/01617.

With `C=CC[C@@H]1/C=C(\C)C[C@H](C)C[C@H](OC)[C@H]2O[C@@](O)(C(=O)C(=O)N3CCCC[C@H]3C(=O)O[C@H](/C(C)=C/[C@@H]3CC[C@@H](O)[C@H](OC)C3)[C@H](C)[C@@H](O)CC1=O)[C@H](C)C[C@@H]2OC` [FK506], the “alkaline phosphatase activity due to NFAT” value in the experiment with NFAT is listed as “dropped all activity due to NFAT to background levels”. Also, the “alkaline phosphatase activity (FK1012A stimulations)” value in experiment [1] was “dropped all stimulations to background levels”. The “alkaline phosphatase activity (FK1012B stimulations)” value in experiment [2] was “dropped all stimulations to near background levels”.
